Assay results taken from ChEMBL document CHEMBL3885881, “DrugMatrix”.

Species: Rattus norvegicus
Experiment: DrugMatrix - Regimen: Daily Repeat
Format: toxicity, organism-based, Sprague-Dawley
Design: regimen Daily Repeat, gender Male, age 6-8 weeks
Conditions: in vivo, iv, vehicle 100 % SALINE; for ABSOLUTE BASOPHIL / ABSOLUTE EOSINOPHIL / ABSOLUTE LYMPHOCYTE / ABSOLUTE MONOCYTE / ABSOLUTE SEGMENTED NEUTROPHIL / BASOPHIL / EOSINOPHIL / ERYTHROCYTE COUNT / HEMATOCRIT / HEMOGLOBIN / LEUKOCYTE COUNT / LYMPHOCYTE / MEAN CORPUSCULAR HEMOGLOBIN / MEAN CORPUSCULAR HEMOGLOBIN CONCENTRATION / MEAN CORPUSCULAR VOLUME / MONOCYTE / NEUTROPHIL / NUCLEATED RED BLOOD CELLS: tissue Blood; for ALANINE AMINOTRANSFERASE / ALKALINE PHOSPHATASE / BLOOD UREA NITROGEN / CARBON DIOXIDE / CHOLESTEROL / CREATINE PHOSPHOKINASE / CREATININE / GLUCOSE / LACTATE DEHYDROGENASE / LIPASE / SODIUM / TOTAL BILIRUBIN / TOTAL PROTEIN / URIC ACID / ASPARTATE AMINOTRANSFERASE: tissue Plasma
[1] = 0 mg/kg, 72 h, dose level Control, time 3 day
[2] = 0 mg/kg, 120 h, dose level Control, time 5 day
[3] = 3 mg/kg, 72 h, dose level High, time 3 day

## COc1cccc2c1C(=O)c1c(O)c3c(c(O)c1C2=O)C[C@@](O)(C(=O)CO)C[C@@H]3O[C@H]1C[C@H](N)[C@H](O)[C@H](C)O1 [DOXORUBICIN]
[1]
  ABSOLUTE BASOPHIL: 0 CELLS/uL
  ABSOLUTE EOSINOPHIL: 0 CELLS/uL
  ABSOLUTE LYMPHOCYTE: 7855.5 CELLS/uL
  ABSOLUTE MONOCYTE: 36.17 CELLS/uL
  ABSOLUTE SEGMENTED NEUTROPHIL: 575 CELLS/uL
  BASOPHIL: 0%
  EOSINOPHIL: 0%
  ERYTHROCYTE COUNT: 5.14 x10E6/uL
  HEMATOCRIT: 33.22%
  HEMOGLOBIN: 12.97 G/DL
  LEUKOCYTE COUNT: 8.47 x10E3/uL
  LYMPHOCYTE: 93.17%
  MEAN CORPUSCULAR HEMOGLOBIN: 25.28 pg
  MEAN CORPUSCULAR HEMOGLOBIN CONCENTRATION: 39.05 G/DL
  MEAN CORPUSCULAR VOLUME: 64.75 fL
  MONOCYTE: 0.33%
  NEUTROPHIL: 6.5%
  NUCLEATED RED BLOOD CELLS: 0 /100WBC
  ALANINE AMINOTRANSFERASE: 61.67 u/L
  ALKALINE PHOSPHATASE: 292.33 u/L
  BLOOD UREA NITROGEN: 11 mg/dL
  CARBON DIOXIDE: 34.67 mmol/L
  CHOLESTEROL: 71.17 mg/dL
  CREATINE PHOSPHOKINASE: 554.5 u/L
  CREATININE: 0.31 mg/dL
  GLUCOSE: 151 mg/dL
  LACTATE DEHYDROGENASE: 88.67 u/L
  LIPASE: 18.83 u/L
  SODIUM: 144.57 MEQ/L
  TOTAL BILIRUBIN: 0.17 mg/dL
  TOTAL PROTEIN: 5.8 G/DL
  URIC ACID: 0.52 mg/dL
[2]
  ABSOLUTE BASOPHIL: 0 CELLS/uL
  ABSOLUTE EOSINOPHIL: 53.33 CELLS/uL
  ABSOLUTE LYMPHOCYTE: 7739.83 CELLS/uL
  ABSOLUTE MONOCYTE: 74.83 CELLS/uL
  ABSOLUTE SEGMENTED NEUTROPHIL: 832 CELLS/uL
  BASOPHIL: 0%
  EOSINOPHIL: 0.67%
  ERYTHROCYTE COUNT: 5.55 x10E6/uL
  HEMATOCRIT: 34.77%
  LEUKOCYTE COUNT: 8.7 x10E3/uL
  LYMPHOCYTE: 89.17%
  MEAN CORPUSCULAR HEMOGLOBIN: 24.6 pg
  MEAN CORPUSCULAR HEMOGLOBIN CONCENTRATION: 39.2 G/DL
  MEAN CORPUSCULAR VOLUME: 62.78 fL
  MONOCYTE: 0.67%
  NEUTROPHIL: 9.5%
  NUCLEATED RED BLOOD CELLS: 0 /100WBC
  ALANINE AMINOTRANSFERASE: 50 u/L
  ALKALINE PHOSPHATASE: 271.17 u/L
  ASPARTATE AMINOTRANSFERASE: 84.17 u/L
  BLOOD UREA NITROGEN: 13.33 mg/dL
  CARBON DIOXIDE: 27 mmol/L
  CHOLESTEROL: 68 mg/dL
  CREATINE PHOSPHOKINASE: 313.67 u/L
  CREATININE: 0.21 mg/dL
  GLUCOSE: 163 mg/dL
  LACTATE DEHYDROGENASE: 75.67 u/L
  LIPASE: 11.5 u/L
  SODIUM: 143.1 MEQ/L
  TOTAL BILIRUBIN: 0.2 mg/dL
  TOTAL PROTEIN: 6.08 G/DL
  URIC ACID: 0.68 mg/dL
[3]
  ABSOLUTE BASOPHIL: 0 CELLS/uL
  ABSOLUTE EOSINOPHIL: 0 CELLS/uL
  ABSOLUTE LYMPHOCYTE: 2936 CELLS/uL
  ABSOLUTE MONOCYTE: 0 CELLS/uL
  ABSOLUTE SEGMENTED NEUTROPHIL: 230.67 CELLS/uL
  BASOPHIL: 0%
  EOSINOPHIL: 0%
  ERYTHROCYTE COUNT: 5.1 x10E6/uL
  HEMATOCRIT: 32.43%
  HEMOGLOBIN: 12.87 G/DL
  LEUKOCYTE COUNT: 3.17 x10E3/uL
  LYMPHOCYTE: 92.67%
  MEAN CORPUSCULAR HEMOGLOBIN: 25.23 pg
  MEAN CORPUSCULAR HEMOGLOBIN CONCENTRATION: 39.67 G/DL
  MEAN CORPUSCULAR VOLUME: 63.63 fL
  MONOCYTE: 0%
  NEUTROPHIL: 7.33%
  NUCLEATED RED BLOOD CELLS: 0 /100WBC
  ALANINE AMINOTRANSFERASE: 53.33 u/L
  ALKALINE PHOSPHATASE: 266 u/L
  ASPARTATE AMINOTRANSFERASE: 81.33 u/L
  BLOOD UREA NITROGEN: 16.67 mg/dL
  CARBON DIOXIDE: 31.33 mmol/L
  CHOLESTEROL: 79.33 mg/dL
  CREATINE PHOSPHOKINASE: 216.67 u/L
  CREATININE: 0.18 mg/dL
  GLUCOSE: 145 mg/dL
  LACTATE DEHYDROGENASE: 77.67 u/L
  LIPASE: 24 u/L
  SODIUM: 143.8 MEQ/L
  TOTAL BILIRUBIN: 0.1 mg/dL
  TOTAL PROTEIN: 5.87 G/DL
  URIC ACID: 0.5 mg/dL
